These results are taken from publication PMC9222373 (2022).

This assay has as its system Apt-5 (unlabelled) (DNA, aptamer) AGCAGCACAGAGGTCAGATGGGATGTGAGGTGGCTCTCGTATCTATAGATTTTGGCGAGACCTATGCGTGCTACCGTGAA
Briefly: AuNP aggregation colorimetry. Particulars: NaCl added after incubation (75 mM optimised); 37 °C, 1 h; 10 ng/mL toxin; 200 nM aptamer stock; insignificant colour change.
As for `C[C@@H]1Cc2c(Cl)cc(C(=O)N[C@@H](Cc3ccccc3)C(=O)O)c(O)c2C(=O)O1`, the binding entry is “no”.
In the case of `CCCC[C@@H](C)[C@@H](OC(=O)C[C@@H](CC(=O)O)C(=O)O)[C@H](C[C@@H](C)C[C@H](O)CCCC[C@@H](O)C[C@H](O)[C@H](C)N)OC(=O)C[C@@H](CC(=O)O)C(=O)O`, the binding entry is listed as “no”.
With `C[C@H]1CCCC(=O)CCC/C=C/c2cc(O)cc(O)c2C(=O)O1`, the binding result is given as “no”.
